Test results from article PMC7265429, “Characterization of a new small-molecule inhibitor of HDAC6 in glioblastoma” (Cell Death & Disease, 2020).

System: GNS166 cells
Assay: Microarray whole-transcriptome gene expression analysis
Type: cell-based, human
Conditions: DMSO vs SAHA, downregulated
Method: Whole-transcriptome analysis was performed from 300 ng of RNA using HuGene-2_0-st-v1 expression array (Affymetrix), which covers 48,226 transcripts. Raw data were first checked for quality purposes through the Affymetrix® Expression Console™ Software v1.4.1 and TAC software v4.0. Then, data were normalized using the Robust Multi-array Average (RMA) and analyzed by Limma tool. Probesets with FDR-corrected p-values smaller than 0.05 were selected. Functional enrichment on Gene Ontology (GO) biological processes was performed on a smaller subset of the differentially expressed genes (corrected p-value < 0.001) by means of Broad Institute GSEA. […] The data that support this study have been deposited in NCBI´s Gene Expression Omnibus and are accessible through GEO series accession number GSE143887.

For O=C(CCCCCCC(=O)Nc1ccccc1)NO [SAHA, Suberoylanilide hydroxamic acid], the “logFC IRAK1” value (transcript TC0X[…].hg.1) was -1.235, the “logFC B3GALT6” value (transcript TC0100006494.hg.1) was -0.9983 and the “logFC HMGN2” value (transcript TC0100007463.hg.1) was -1.008. For the same compound, the “logFC CDCA8” value (transcript TC0100007841.hg.1) was -1.807, the “logFC ERMAP” value (transcript TC0100008033.hg.1) was -2.3938 and the “logFC KIF2C” value (transcript TC0100008101.hg.1) was -1.858. The “logFC CMPK1” value (transcript TC0100008190.hg.1) was -1.434, the “logFC NEXN” value (transcript TC0100008807.hg.1) was -1.823 and the “logFC HIST2H2AA3” value (transcript TC0100009876.hg.1) was -1.529. The “logFC HIST2H3A” value (transcript TC0100009877.hg.1) was -1.612, the “logFC GABPB2” value (transcript TC0100009939.hg.1) was -1.449 and the “logFC CKS1B” value (transcript TC0100010100.hg.1) was -1.171. The “logFC PMF1” value (transcript TC0100010161.hg.1) was -1.537, the “logFC NUF2” value (transcript TC0100010397.hg.1) was -2.331 and the “logFC FAM163A” value (transcript TC0100010786.hg.1) was -1.762. The “logFC CENPF” value (transcript TC0100011581.hg.1) was -1.482, the “logFC EPHA2” value (transcript TC0100013028.hg.1) was -1.043 and the “logFC STMN1” value (transcript TC0100013369.hg.1) was -1.036. For the same compound, the “logFC HIST2H3A” value (transcript TC0100015701.hg.1) was -1.662, the “logFC ASPM” value (transcript TC0100016831.hg.1) was -1.487 and the “logFC DDX59” value (transcript TC0100016893.hg.1) was -1.42. For the same compound, the “logFC NUCKS1” value (transcript TC0100017075.hg.1) was -1.264, the “logFC EIF2D” value (transcript TC0100017100.hg.1) was -1.459 and the “logFC CD34” value (transcript TC0100017142.hg.1) was -2.059. The “logFC LIN9” value (transcript TC0100017523.hg.1) was -1.223, the “logFC ZBTB8A” value (transcript TC0100018209.hg.1) was -1.532 and the “logFC HIST2H2AA4” value (transcript TC0100018482.hg.1) was -1.569. For the same compound, the “logFC IAH1” value (transcript TC0200006648.hg.1) was -1.549, the “logFC RRM2” value (transcript TC0200006677.hg.1) was -1.424 and the “logFC KCNIP3” value (transcript TC0200008464.hg.1) was -2.439. For the same compound, the “logFC NCAPH” value (transcript TC0200008502.hg.1) was -2.071, the “logFC GALNT5” value (transcript TC0200009739.hg.1) was -2.15 and the “logFC CFLAR” value (transcript TC0200010443.hg.1) was -1.832. The “logFC ADI1” value (transcript TC0200011551.hg.1) was -2.286, the “logFC EVA1A” value (transcript TC0200013135.hg.1) was -1.744 and the “logFC NMI” value (transcript TC0200014610.hg.1) was -2.309. For the same compound, the “logFC SPC25” value (transcript TC0200014845.hg.1) was -1.44, the “logFC SLC16A14” value (transcript TC0200015971.hg.1) was -1.405 and the “logFC HJURP” value (transcript TC0200016099.hg.1) was -1.261. For the same compound, the “logFC CENPA” value (transcript TC0200016417.hg.1) was -1.421, the “logFC SPDYA” value (transcript TC0200016423.hg.1) was -1.919 and the “logFC ACYP2” value (transcript TC0200016447.hg.1) was -1.266. The “logFC FANCD2” value (transcript TC0300006575.hg.1) was -1.767, the “logFC KIF15” value (transcript TC0300007223.hg.1) was -1.9928 and the “logFC ARHGAP31” value (transcript TC0300008467.hg.1) was -1.69. The “logFC FAIM” value (transcript TC0300008952.hg.1) was -1.871, the “logFC RTP4” value (transcript TC0300009799.hg.1) was -1.468 and the “logFC SUCLG2” value (transcript TC0300011436.hg.1) was -1.146. For the same compound, the “logFC BDH1” value (transcript TC0300013751.hg.1) was -1.665, the “logFC NAALADL2” value (transcript TC0300013904.hg.1) was -1.839 and the “logFC KCNMB2” value (transcript TC0300013906.hg.1) was -1.816. For the same compound, the “logFC NEIL3” value (transcript TC0400009396.hg.1) was -0.9384, the “logFC CCNA2” value (transcript TC0400011748.hg.1) was -1.45 and the “logFC GPM6A” value (transcript TC0400012473.hg.1) was -1.528. The “logFC TRIP13” value (transcript TC0500006472.hg.1) was -1.825, the “logFC NDUFS6” value (transcript TC0500006523.hg.1) was -0.9474 and the “logFC IL7R” value (transcript TC0500007138.hg.1) was -2.627. For the same compound, the “logFC NNT” value (transcript TC0500007303.hg.1) was -1.728, the “logFC CCNB1” value (transcript TC0500007665.hg.1) was -1.603 and the “logFC KIF20A” value (transcript TC0500008777.hg.1) was -2.05. For the same compound, the “logFC HIGD2A” value (transcript TC0500009587.hg.1) was -1.228, the “logFC NSD1” value (transcript TC0500009610.hg.1) was -1.443 and the “logFC ARSB” value (transcript TC0500011228.hg.1) was -1.571. The “logFC BRD8” value (transcript TC0500012162.hg.1) was -1.077, the “logFC CRHBP” value (transcript TC0500013193.hg.1) was -2.74 and the “logFC PCBD2” value (transcript TC0500013230.hg.1) was -1.097. For the same compound, the “logFC FAM169A” value (transcript TC0500013328.hg.1) was -1.569, the “logFC HIST1H4C” value (transcript TC0600007268.hg.1) was -1.755 and the “logFC HIST1H2BF” value (transcript TC0600007282.hg.1) was -1.711. For the same compound, the “logFC HIST1H4E” value (transcript TC0600007284.hg.1) was -2.005, the “logFC HIST1H2AE” value (transcript TC0600007285.hg.1) was -1.564 and the “logFC HIST1H2AL” value (transcript TC0600007380.hg.1) was -1.235. For the same compound, the “logFC GTF3C6” value (transcript TC0600009140.hg.1) was -2.124, the “logFC HIST1H4B” value (transcript TC0600011123.hg.1) was -1.235 and the “logFC HIST1H3B” value (transcript TC0600011124.hg.1) was -1.868. For the same compound, the “logFC HIST1H3D” value (transcript TC0600011135.hg.1) was -1.444, the “logFC HIST1H2BG” value (transcript TC0600011136.hg.1) was -1.568 and the “logFC HIST1H4H” value (transcript TC0600011145.hg.1) was -1.26. The “logFC HIST1H2BJ” value (transcript TC0600011184.hg.1) was -1.604, the “logFC HIST1H2BK” value (transcript TC0600011185.hg.1) was -1.804 and the “logFC PSMB8” value (transcript TC0600011507.hg.1) was -1.143. For the same compound, the “logFC DNPH1” value (transcript TC0600011870.hg.1) was -1.264, the “logFC FBXO5” value (transcript TC0600013602.hg.1) was -1.287 and the “logFC HIST1H2AG” value (transcript TC0600014083.hg.1) was -2.001. For the same compound, the “logFC NUDT3” value (transcript TC0600014283.hg.1) was -1.135, the “logFC LANCL2” value (transcript TC0700007610.hg.1) was -1.812 and the “logFC GTF2I” value (transcript TC0700008010.hg.1) was -1.635. For the same compound, the “logFC MEPCE” value (transcript TC0700008542.hg.1) was -1.622 and the “logFC CAV1” value (transcript TC0700008873.hg.1) was -0.9681.
